Test results published in ChEMBL document CHEMBL1152318, “Antitumor psoropermum xanthones and sarcomelicope acridones: privileged structures implied in DNA alkylation” (J Nat Prod, 2009).

How the values were obtained:
[1] = system: L1210; assay: Cytotoxicity against mouse L1210 cells; format: functional, cell-based
[2] = Cytotoxicity against human KB-3-1 cells; format: functional, cell-based
[3] = system: L1210; assay: Ratio of acronycine IC50 to compound IC50 for mouse L1210 cells; format: functional
[4] = system: P388; assay: Antitumor activity against mouse P388 cells xenografted in B6D2F1 mouse assessed as median survival at 50 mg/kg, ip relative to control; format: functional; details: route intraperitoneal
[5] = system: MC-38; assay: Antitumor activity against […] cells […] in B6D2F1 mouse assessed as tumor growth at 12.5 mg/kg, ip relative to control; format: functional; details: route intraperitoneal
[6] = system: L1210; assay: Ratio of IC50 for human KB-3-1 cells to IC50 for mouse L1210 cells; format: functional
[7] = system: P388; assay: Antitumor activity against mouse P388 cells xenografted in B6D2F1 mouse assessed as median survival at 12.5 mg/kg, ip relative to control; format: functional; details: route intraperitoneal
[8] = system: P388; assay: Antitumor activity against mouse P388 cells xenografted in B6D2F1 mouse assessed as median survival at 25 mg/kg, ip relative to control; format: functional; details: route intraperitoneal
[9] = system: OVCAR-3; assay: Antitumor activity against human OVCAR-3 cells xenografted in BALB/c nude mouse assessed as increase in survival administered twice by intravenous route; format: functional, cell-based
[10] = system: IGROV-1; assay: Antitumor activity against human IGROV1 cells xenografted in BALB/c nude mouse assessed as increase in survival administered twice by intravenous route; format: functional, cell-based
[11] = system: NCI-H460; assay: Antitumor activity against human NCI-H460 cells xenografted in BALB/c nude mouse assessed as increase in survival administered twice by intravenous route; format: functional, cell-based
[12] = system: A549; assay: Antitumor activity against human A549 cells xenografted in BALB/c nude mouse assessed as increase in survival administered twice by intravenous route; format: functional, cell-based
[13] = system: NCI-H460; assay: Antitumor activity against human NCI-H460 cells xenografted in BALB/c nude mouse administered twice 6.25 mg/kg, iv relative to control; format: functional
[14] = system: MC-38; assay: Antitumor activity against […] cells […] in B6D2F1 mouse assessed as tumor growth at 6.25 mg/kg, ip relative to control; format: functional; details: route intraperitoneal
[15] = system: IGROV-1; assay: Antitumor activity against human IGROV1 cells xenografted in BALB/c nude mouse administered twice 6.25 mg/kg, iv relative to control; format: functional
[16] = system: MC-38; assay: Antitumor activity against […] cells […] in B6D2F1 mouse assessed as inhibition of tumor growth at 6.25 mg/kg, ip; format: functional; details: MC-38, ip, route intraperitoneal, read-out: TGI
[17] = system: P388; assay: Antitumor activity against mouse P388 cells xenografted in B6D2F1 mouse assessed as median survival at 200 mg/kg, ip relative to control; format: functional; details: route intraperitoneal
[18] = system: MC-38; assay: Antitumor activity against […] cells […] in B6D2F1 mouse assessed as tumor growth at 200 mg/kg, ip relative to control; format: functional; details: route intraperitoneal
[19] = system: HCT-116; assay: Cytotoxicity against human HCT116 cells; format: functional, cell-based
[20] = system: SMMC-7721; assay: Cytotoxicity against human SMMC7721 cells; format: functional, cell-based
[21] = system: SGC-7901; assay: Cytotoxicity against human SGC7901 cells; format: functional, cell-based
[22] = system: MCF7; assay: Cytotoxicity against human MCF7 cells by MTT assay; format: functional, cell-based
[23] = system: HeLa; assay: Cytotoxicity against human HeLa cells by MTT assay; format: functional, cell-based
[24] = system: A-431; assay: Cytotoxicity against human A431 cells by MTT assay; format: functional, cell-based
[25] = Cytotoxicity against human 9KB cells; format: functional, cell-based
[26] = system: P388; assay: In vivo cytotoxicity against mouse P388 cells at 8 mg/kg relative to control; format: functional
[27] = Homo sapiens, HeLa, read-out: IC50
[28] = Homo sapiens, A-431, read-out: IC50

## COc1cc2c(c3c1c(=O)c1cc4ccccc4cc1n3C)C[C@H]([C@@]1(C)CO1)O2
[1]
  IC50: 10 nM
[2]
  IC50: 10 nM

## COc1cc2c(c3c1c(=O)c1cc4ccccc4cc1n3C)C[C@H]([C@]1(C)CO1)O2
[1]
  IC50: 10 nM
[2]
  IC50: 10 nM

## COc1cc2c(c3c1c(=O)c1ccccc1n3C)[C@@H](OC(C)=O)[C@@H](OC(=O)c1ccccc1)C(C)(C)O2 (racemic)
[3]
  Ratio IC50: 5
[4]
  T/C: 201%
[5]
  T/C: 13%

## CCC(=O)O[C@@H]1c2c(cc(OC)c3c(=O)c4c5ccccc5ccc4n(C)c23)OC(C)(C)[C@@H]1OC(=O)CC (racemic)
[6]
  Ratio IC50: 3

## COc1cc2c(c3c1c(=O)c1c4ccccc4ccc1n3C)[C@@H](OC(=O)CC(C)C)[C@@H](OC(=O)CC(C)C)C(C)(C)O2 (racemic)
[6]
  Ratio IC50: 3

## COc1cc2c(c3c1c(=O)c1cc4ccccc4cc1n3C)[C@@H](OC(=O)CC(C)C)[C@@H](OC(=O)CC(C)C)C(C)(C)O2 (racemic)
[6]
  Ratio IC50: 3

## COc1cc2c(c3c1c(=O)c1cc4ccccc4cc1n3C)[C@@H](OC(C)=O)[C@@H](OC(=O)CC(C)C)C(C)(C)O2 (racemic)
[6]
  Ratio IC50: 3

## CCC(=O)O[C@@H]1c2c(cc(OC)c3c(=O)c4cc5ccccc5cc4n(C)c23)OC(C)(C)[C@@H]1OC(=O)CC (racemic)
[6]
  Ratio IC50: 3

## COc1cc2c(c3c1c(=O)c1c4ccccc4ccc1n3C)[C@@H](OC(C)=O)[C@@H](OC(C)=O)C(C)(C)O2 (racemic)
[6]
  Ratio IC50: 3

## COc1cc2c(c3c1c(=O)c1c4ccccc4ccc1n3C)[C@@H](OC(C)=O)[C@@H](OC(=O)CC(C)C)C(C)(C)O2 (racemic)
[6]
  Ratio IC50: 3

## COc1cc2c(c3c1c(=O)c1ccccc1n3C)[C@@H](OC(C)=O)[C@H](OC(C)=O)C(C)(C)O2 (racemic)
[7]
  T/C: 181%

## COc1cc2c(c3c1c(=O)c1ccccc1n3C)[C@@H](OC(C)=O)[C@@H](OC(C)=O)C(C)(C)O2 (racemic)
[3]
  Ratio IC50: 5
[8]
  T/C: 289%
[5]
  T/C: 0%

## COc1cc2c(c3c1c(=O)c1cc4ccccc4cc1n3C)[C@@H](OC(C)=O)[C@@H](OC(C)=O)C(C)(C)O2 (racemic)
[9]
  Activity: Dose-dependent effect
[10]
  Activity: Dose-dependent effect
[11]
  Activity: Dose-dependent effect
[12]
  Activity: Dose-dependent effect
[13]
  T/C: 162%
[6]
  Ratio IC50: 3
[7]
  T/C: 327%
[14]
  T/C: 4%
[15]
  T/C: 193%
[16]
  inhibition in vivo at 6.25 mg/kg: 96%

## COc1cc2c(c3c1c(=O)c1ccccc1n3C)C=CC(C)(C)O2 [ACRONINE]
[17]
  T/C: 125%
[18]
  T/C: 4%

## COc1cc2c(c3c1c(=O)c1c4ccccc4ccc1n3C)C=CC(C)(C)O2 [BENZO[A]ACRONYCINE]
[3]
  Ratio IC50: 4

## COc1cc2c(c3c1c(=O)c1cc4ccccc4cc1n3C)C=CC(C)(C)O2 [BENZO[B]ACRONYCINE]
[3]
  Ratio IC50: 4

## COc1cc2c(c3c1c(=O)c1ccc4ccccc4c1n3C)C=CC(C)(C)O2 [BENZO[C]ACRONYCINE]
[1]
  IC50: 12100 nM

## C=CC(C)(C)c1c(O)cc(O)c2c(=O)c3c(CC=C(C)C)c(O)c(O)cc3oc12 [CUDRATRICUSXANTHONE A]
[19]
  IC50: 4000 nM
[20]
  IC50: 4000 nM
[21]
  IC50: 4000 nM

## COCC(C)(O)C1Cc2c(cc(O)c3c(=O)c4ccccc4n(C)c23)O1 (centres undefined) [GRAVACRIDONDIOLMONOMETHYL ETHER]
[22]
  IC50: 3000 nM
[23]; [27]
  IC50: 3000 nM
[24]; [28]
  IC50: 3000 nM

## Cn1c2ccccc2c(=O)c2c(O)cc3c(c21)CC(C(C)(O)CO)O3 (centres undefined) [GRAVACRIDONDIOL]
[22]
  IC50: 3000 nM
[23]; [27]
  IC50: 3000 nM
[24]; [28]
  IC50: 3000 nM

## Cn1c2ccccc2c(=O)c2c(O)cc3c(c21)CC(C(O)(CO)CO)O3 (centres undefined) [GRAVACRIDONTRIOL]
[23]; hela
  IC50: Active
[24]; a-431
  IC50: Active

## COc1cc2c(c3oc4c(O)cccc4c(=O)c13)C[C@H]([C@@]1(C)CO1)O2 [PSOROSPERMIN]
[25]
  IC50: 290 nM
[26]
  T/C: 158%

## C=C(C)[C@H]1Cc2c(cc(O)c3c(=O)c4ccccc4n(C)c23)O1 [RUTACRIDONE]
[22]
  IC50: 3000 nM
[23]; [27]
  IC50: 3000 nM
[24]; [28]
  IC50: 3000 nM
